From patent US10668024B2, “Mesoporous silica nanoparticles for biomedical applications” (The Regents of the University of California, priority 2007, dated 2020)

How the values were obtained:
Capan-1 cells = test: Cell death assay (WST-8), Example 2; format: cell-based, human
Description: (§1) Human cancer cell lines, PANC-1, AsPC-1, Capan-1 (pancreatic), MKN45 (gastric), and SW480 (colon) were obtained from the American Type Culture Collection and were maintained in Dulbecco's modified Eagle's medium (DMEM) (GIBCO) or RPMI-1640 (Cellgro) supplemented with 10% fetal calf serum (Sigma), 2% L-glutamine, 1% penicillin, and 1% streptomycin stock solutions. The media were changed every 3 days, and the cells were passaged by trypsinization before confluence.

AsPc-1 cells = test: Cell death assay (WST-8), Example 2; format: cell-based, human
Description: as §1

SW480 cells = test: Cell death assay (WST-8), Example 2; format: cell-based, human
Description: as §1

PANC-1 cells [1] = test: Cell death assay (WST-8), Example 2; format: cell-based, human
Description: as §1

MKN-45 cells = test: Cell death assay (WST-8), Example 2; format: cell-based, human
Description: as §1

PANC-1 cells [2] = test: Apoptosis assay (propidium iodide/Hoechst 33342, DNA fragmentation, caspase-3 Western blot); format: cell-based, human; settings: 24 hours
Description: Cell death was also examined using the propidium iodide and Hoechst 33342 double-staining method. The cells were stained with propidium iodide/Hoechst 33342 (1:1) for 5 minutes and then examined using fluorescence microscope. DNA fragmentation assay was also performed. PANC-1 cells were treated for 24 hours with: (1) 100 nM CPT in PBS, (2) 100 nM CPT loaded in FMSN (suspended in PBS), or (3) 64 μg/ml nonloaded FMSN in PBS, then washed twice with ice-cold PBS and collected by trypsinization. The cell pellets were resuspended in 500 μl of Tris-EDTA buffer (20 mM Tris-HCl [pH 8.0], 20 mM EDTA) containing 0.1% SDS and proteinase K (0.5 mg/ml) at 50° C. for 2 hours and then treated with RNase A (0.02 mg/ml) for 30 minutes at 37° C. DNA was extracted using phenol/chloroform and ethanol precipitation and was dissolved in distilled water, separated on a 2% agarose gel, and stained with ethidium bromide.
Proteins were separated by gel electrophoresis on a polyacrylamide gel containing sodium dodecyl sulfate (SDS), and then transferred to nitrocellulose membranes. The membranes were blocked with tris buffer saline (TBS) containing 5% (W/V) skim milk. […] Bands were detected with an ECL system (Amersham Pharmacia Biotech K.K., UK).

PANC-1 cells [3] = test: Fluorescence and confocal microscopy, Example 2; format: cell-based, human; settings: suspension of CPT in PBS, 100 nM, 3 hours incubation
Description: as §1
The fluorescence of the nanoparticles at 470 nm excitation wavelength was used to confirm the cellular uptake of FMSN. […] The cells were then monitored by fluorescence microscope with an excitation wavelength at 470 nm. To examine the location of FMSN within the cells, Acridine Orange (AO) (Sigma) and lysoSensor green DND-189 (Invitrogen) were used to monitor lysosomes and endosomes. Cells were cultured overnight on a Lab-Tek chamber slide system (Nalge Nunc International). After the cells were incubated with FMSN for 3 hours, they were washed with PBS and examined with confocal microscope (λex=470 nm) (Carl Zeiss LSM 310 Laser Scanning Confocal microscope). […] This property allows the use of fluorescence to study the distribution of CPT inside the cells. PANC-1 cells were incubated with CPT-loaded FMSN or CPT suspended in PBS (100 nM) for 3 hours, washed with PBS 3 times, and then examined by fluorescence microscope under UV.

PANC-1 cells [4] = test: Confocal microscopy of FMSN uptake, Example 3; format: cell-based, human; settings: 0.1% sodium azide, sucrose 0.45 M, bafilomycin A 0.05 μM, nocodazole 2 μg/ml, brefeldin A 5 μg/ml
Description: The fluorescence of FITC was used to monitor cellular uptake of FMSN. Cells were incubated with FMSN for 3 h at 37° C. under a 5% CO2 95% air atmosphere in an 8-chamber Lab-Tek chamber slide system with covers (Nalge Nunc International), washed with phosphate buffered saline (PBS) and examined with confocal microscopy (λex=470 nm) (Carl Zeiss LSM 310 Laser Scanning Confocal microscopy). To examine the distribution of FMSN within the cells, the same cells were then incubated with 6 μM of Acridine Orange (AO) (Sigma), which specifically stains lysosomes/endosomes to red (Canonico, P. G. and Bird, J. W. C. (1969), J. Cell Biol. 43, 367-371), for 1 h in DMEM without phenol red, washed with PBS, and examined by confocal microscopy again (λex=488 nm). The emission light was passed through a 560-nm short-pass dichroic mirror. The green emission was passed through a 530-nm bandpass filter, and the red emission was passed through a 600-nm longpass filter. Both emissions were simultaneously collected using two photomultiplier tubes.
To determine whether the uptake of FMSN into cancer cells was energy-dependent, the cells were incubated with FMSN under different metabolic conditions. The uptake assay was performed in the presence of sodium azide, sucrose, bafilomycin A, nocodazole or brefeldin A. Cells were seeded on 8-chamber Lab-Tek chamber slides for 24 h, then preincubated at 4° C. with either 0.1% sodium azide, or sucrose (0.45 M), or bafilomycin A (0.05 μM), or nocodazole (2 μg/ml), or brefeldin A (5 μg/ml) for 10 min. The FMSN suspension in PBS was then added and the cells were incubated for additional 3 h at 37° C. The uptake was stopped by washing the cells three times with cold PBS, and then the cells were fixed with 4% paraformaldehyde in PBS for 1 h at room temperature and washed with PBS. The chambers of slides were removed, and each slide was mounted with fluorescence-free glycerol-based mounting medium (Fluoromount-G; Southern Biotechnology Associates, USA) by cover glasses. Cells were analyzed by confocal microscopy (Carl Zeiss LSM 310 Laser Scanning Confocal microscopy).

cancer cells = settings: relative to CPT; cited from earlier work
PANC-1 cells [5] = test: Cell morphology analysis by light microscopy; settings: PANC-1, paclitaxel dissolved in DMSO

Question: Which “cytotoxicity / growth inhibition” value (Capan-1 cells; Capan-1, CPT dissolved in DMSO, 24 h treatment + 48 h) does the source give for CC[C@@]1(O)C(=O)OCc2c1cc1n(c2=O)Cc2cc3ccccc3nc2-1 [CPT, camptothecin] here?
Answer: growth inhibition of different human cancer cells was observed

Question: What about the cytotoxicity (Capan-1 cells; Capan-1, CPT suspended in PBS, even at high concentrations) of the same compound?
Answer: did not show any cytotoxicity

Question: And the “cytotoxicity / growth inhibition” value (AsPc-1 cells; AsPc-1, CPT dissolved in DMSO, 24 h treatment + 48 h)?
Answer: growth inhibition of different human cancer cells was observed

Question: What about the cytotoxicity (AsPc-1 cells; AsPc-1, CPT suspended in PBS, even at high concentrations) of the same compound?
Answer: did not show any cytotoxicity

Question: What about the “cytotoxicity / growth inhibition” value (SW480 cells; SW480, CPT dissolved in DMSO, 24 h treatment + 48 h) of the same compound?
Answer: growth inhibition of different human cancer cells was observed

Question: And the cytotoxicity (SW480 cells; SW480, CPT suspended in PBS, even at high concentrations)?
Answer: did not show any cytotoxicity

Question: What about the “cytotoxicity / growth inhibition” value (PANC-1 cells [1]; PANC-1, CPT dissolved in DMSO, 24 h treatment + 48 h) of the same compound?
Answer: growth inhibition of different human cancer cells was observed

Question: What about the cytotoxicity (PANC-1 cells [1]; PANC-1, CPT suspended in PBS, even at high concentrations) of the same compound?
Answer: did not show any cytotoxicity

Question: What about the “cytotoxicity / growth inhibition” value (MKN-45 cells; MKN-45, CPT dissolved in DMSO, 24 h treatment + 48 h) of the same compound?
Answer: growth inhibition of different human cancer cells was observed

Question: What about the cytotoxicity (MKN-45 cells; MKN-45, CPT suspended in PBS, even at high concentrations) of the same compound?
Answer: did not show any cytotoxicity

Question: What about the “mechanism of cell death (propidium iodide/Hoechst 33342 double staining)” value (PANC-1 cells [2]; PANC-1, CPT dissolved in DMSO, compared with CPT-loaded FMSN) of the same compound?
Answer: similar

Question: What about the “CPT fluorescence in cells” value (PANC-1 cells [3]) of the same compound?
Answer: remained nonfluorescent

Question: With C[S+](C)[O-] [DMSO, dimethyl sulfoxide] as the compound, how does the “mechanism of cell death (propidium iodide/Hoechst 33342 double staining)” value (PANC-1 cells [2]; PANC-1, 10% DMSO) read?
Answer: induced necrosis

Question: For CO/C1=C\C(C)=C\[C@@H](C)[C@@H](O)[C@@H](C)C/C(C)=C/C=C/[C@H](OC)[C@@H]([C@@H](C)[C@@H](O)[C@H](C)[C@@]2(O)C[C@@H](O)[C@H](C)[C@@H](C(C)C)O2)OC1=O [bafilomycin A], which “effect of preincubation with inhibitor on uptake of FMSN” value (“effect of preincubation with inhibitor” for short) (PANC-1 cells [4]) is on record?
Answer: completely suppressed the uptake

Question: Which “effect of preincubation with inhibitor” value (PANC-1 cells [4]) does the source give for C[C@H]1CCC/C=C/[C@@H]2C[C@H](O)C[C@H]2[C@H](O)/C=C/C(=O)O1 [brefeldin A] here?
Answer: did not show any effect

Question: Which “cytotoxicity to cancer cells compared to CPT” value (cancer cells) does the source give for CCc1c2c(nc3ccc(OC(=O)N4CCC(N5CCCCC5)CC4)cc13)-c1cc3c(c(=O)n1C2)COC(=O)[C@]3(O)CC [irinotecan] here?
Answer: 10%

Question: For COC(=O)Nc1nc2ccc(C(=O)c3cccs3)cc2[nH]1 [nocodazole], which “effect of preincubation with inhibitor” value (PANC-1 cells [4]) is on record?
Answer: significantly disrupted the uptake

Question: Which “morphologic change of the cells” value (PANC-1 cells [5]) does the source give for CC(=O)O[C@H]1C(=O)[C@@]2(C)[C@H]([C@H](OC(=O)c3ccccc3)[C@]3(O)C[C@H](OC(=O)[C@H](O)[C@@H](NC(=O)c4ccccc4)c4ccccc4)C(C)=C1C3(C)C)[C@]1(OC(C)=O)CO[C@@H]1C[C@@H]2O [paclitaxel] here?
Answer: Cells became round and smaller

Question: Which “effect of preincubation with inhibitor” value (PANC-1 cells [4]) does the source give for OC[C@H]1O[C@@](CO)(O[C@H]2O[C@H](CO)[C@@H](O)[C@H](O)[C@H]2O)[C@@H](O)[C@@H]1O [sucrose] here?
Answer: suppressed the uptake
